Measurements as given in patent US9018391B2, “Inhibitors of beta-secretase” (Boehringer Ingelheim International GmbH, priority 2012, dated 2015).

Legend:
[1] = system: Human Hepatocytes; assay: In Vitro Hepatocyte Stability Assay (Assay 4); assay type: in vitro ADME; settings: predicted blood clearance as percent of hepatic blood flow
Procedure: In Vitro Hepatocyte Stability Assay (Assay 4)
The metabolic degradation of test compounds was assayed in a hepatocyte suspension. Cryopreserved hepatocytes were incubated in an appropriate buffer system (e.g., Dulbecco's modified eagle medium plus 3.5 μg glucagon/500 mL, 2.5 mg insulin/500 mL and 3.75 mg/500 mL hydrocortison) containing 5% species serum. Following a 30 min preincubation in an incubator (37° C., 10% CO2), 5 μl of test compound solution (80 μM; from 2 mM in DMSO stock solution diluted 1:25 with medium) were added into 395 μl hepatocyte suspension (cell density in the range 0.25−5×10^6 cells/mL, typically 1×10^6 cells/mL; final concentration of test compound final DMSO concentration […]).
The cells were incubated for six h (incubator, orbital shaker) and samples (25 μl) were taken at 0, 0.5, 1, 2, 4 and 6 h. Samples were transferred into acetonitrile and pelleted by centrifugation (5 min). The supernatant was transferred to a new 96 DeepWell™ plate, evaporated under nitrogen and resuspended. Decline of compound was analyzed by HPLC-MS/MS. CLint (in vitro hepatic intrinsic clearance) was calculated as follows: CLint=Dose/AUC=(C0/CD)/(AUD+Clast/k)×1000/60
C0: initial concentration in the incubation [μM];
CD: cell density of vital cells [cells/mL];
AUD: area under the data [μM×h];
Clast: concentration of last data point [μM];
k: slope of the regression line for compound decline [h^−1].
The calculated in vitro hepatic intrinsic clearance was scaled up to the intrinsic in vivo hepatic clearance (Clint in vivo) and used to predict hepatic in vivo blood clearance (CL) by the use of a liver model (well-stirred model), as follows: CLint,in vivo[mL/min/kg]=(CLint[μL/min/10^6 cells]×hepatocellularity[10^6 cells/g liver]×liver factor [g/kg body weight])/1000 CL[mL/min/kg]=CLint,to vivo×hepatic blood flow[ml/min/kg]/(CLint,in vivo[ml/min/kg]+hepatic blood flow[mL/min/kg])
The in vivo blood clearance was transformed into percent of the hepatic blood flow (% Qh): % Qh=CL[mL/min/kg]/hepatic blood flow[mL/min/kg])×100
Hepatocellularity, human: 1.2×10^7 cells/g liver;
Liver factor, human: 25.7 g/kg body weight;
Hepatic blood flow, human: 21 mL/(min×kg).

[2] = In Vitro Phospholipidosis Assay (Assay 3), Nile red staining; assay type: cell-based, human; settings: human, first effect concentration, U937 cells, read-out: Phospholipidosis FEC IC50 μM (assay 3)
Procedure: In Vitro Phospholipidosis Assay (Assay 3)
The phospholipidogenic potential of test compounds was assayed using the human hematopoetic U937 cell line. The test principle was to analyze the phospholipid content by staining the cells with the fluorescent dye Nile red.
U937 cells were seeded into cell culture plates at 0.5×10^6 cells/mL in RPMI medium containing 10% FBS, 1% DMSO, and 0.005% gentamicin. The cells were cultivated with or without different concentrations of test compound for 48 h under standard culture conditions.
For harvesting, the cells were centrifuged at 130×g for 4 min and washed once with PBS. Then, 2×0.5 mL cell suspensions were prepared for non-fixed cell measurement (0.5 mL for propidium iodide (PI) viability measurement and 0.5 mL for Nile red measurement).
The remaining cells were fixed with 3.7% formaldehyde for 30 min. After a further centrifugation step, cells were resuspended with 1.3 mL Nile red working solution (1 μg/mL) and incubated for 5 min at rt. The cell suspension was washed twice with 3 mL PBS and centrifuged with 130×g for 4 min. The supernatant was discarded and the cells were resuspended with 0.5 mL PBS and kept for flow cytometry measurement.
For Nile red staining of the 0.5 mL non-fixed cell samples, 50 μL of a ready to use Nile red solution (10 μg/mL) were added per sample. Samples were kept on ice for 5 min. Thereafter, they were washed once with 4 mL PBS (4° C., 250×g for 8 min) and finally resuspended in 400 μL PBS and kept for flow cytometry measurement.
For the viability measurement, 12.5 μL of the ready to use PI solution (10 μg/mL) were added to the 0.5 mL non-fixed cell suspension. After 15 min of incubation on ice, the samples were measured by flow cytometry using a Coulter Epics XL/MCL flow cytometer.
The viability of the cells of each sample was determined by flow cytometry measurement of the PI content at channel 2 (568-590 nm). Cut-off gates for the fluorescence-dependent differentiation between live and dead cells were defined based on the analysis of cell culture medium control samples.
Only samples with a cell viability of >=90% relative to control samples were analyzed for phospholipidosis. Each Nile red sample (non-fixed and fixed samples) was measured by flow cytometry at channel 1 (504-541 nm) and channel 4 (660-680 nm).
For each channel, relative Nile red fluorescence intensity of a test sample was calculated compared to control samples and expressed as a percentage of control fluorescence intensity. The assessment of the phospholipidogenic potential and the first effective concentration (FEC) of a test compound was done manually based on the fluorescence intensities at both wavelengths for the fixed cells, as well as for the non-fixed cells.

| Structure (SMILES) | In vitro Human Hepatocytes % Qh @ 1 μM (assay 4) [1] | IC50 at 48 h [2] |
| --- | --- | --- |
| C[C@@H]1C[C@@]2(Cc3ccc(C#N)cc3[C@]23N=C(N)N(CC(C)(C)F)C3=O)C[C@H](C)[C@H]1O [Example 2] | 1.6 % Qh | 400 µM |
| C[C@@H]1C[C@@]2(Cc3ccc(C#N)cc3[C@]23N=C(N)N(CC2(F)CCOCC2)C3=O)C[C@H](C)[C@H]1O [Example 4] | 6.1 % Qh | 800 µM |
| C[C@@H]1C[C@@]2(Cc3ccc(C#N)cc3[C@]23N=C(N)N(CCC(F)(F)F)C3=O)C[C@H](C)[C@H]1O [Example 1] | 0 % Qh | 400 µM |

The next lines start with results.

| In vitro Human Hepatocytes % Qh @ 1 μM (assay 4) [1] | Structure (SMILES) | IC50 at 48 h [2] |
| --- | --- | --- |
| 13 % Qh | CC[C@@H]1C[C@@]2(Cc3ccc(C#N)cc3[C@]23N=C(N)N(CC(C)(C)F)C3=O)C[C@H](C)[C@H]1O [Example 7] | 400 µM |
| 12.4 % Qh | CC[C@@H]1C[C@]2(CC[C@H]1O)Cc1ccc(C#N)cc1[C@]21N=C(N)N(CC(C)(C)F)C1=O [Example 9] | 400 µM |
